In data set [1] the target is T1, airway epithelial sodium currents (sodium channel) (UniProt A0A8I3MKE6+A0A8I3Q679+Q95165).
T1 sequence (A0A8I3MKE6 1-646): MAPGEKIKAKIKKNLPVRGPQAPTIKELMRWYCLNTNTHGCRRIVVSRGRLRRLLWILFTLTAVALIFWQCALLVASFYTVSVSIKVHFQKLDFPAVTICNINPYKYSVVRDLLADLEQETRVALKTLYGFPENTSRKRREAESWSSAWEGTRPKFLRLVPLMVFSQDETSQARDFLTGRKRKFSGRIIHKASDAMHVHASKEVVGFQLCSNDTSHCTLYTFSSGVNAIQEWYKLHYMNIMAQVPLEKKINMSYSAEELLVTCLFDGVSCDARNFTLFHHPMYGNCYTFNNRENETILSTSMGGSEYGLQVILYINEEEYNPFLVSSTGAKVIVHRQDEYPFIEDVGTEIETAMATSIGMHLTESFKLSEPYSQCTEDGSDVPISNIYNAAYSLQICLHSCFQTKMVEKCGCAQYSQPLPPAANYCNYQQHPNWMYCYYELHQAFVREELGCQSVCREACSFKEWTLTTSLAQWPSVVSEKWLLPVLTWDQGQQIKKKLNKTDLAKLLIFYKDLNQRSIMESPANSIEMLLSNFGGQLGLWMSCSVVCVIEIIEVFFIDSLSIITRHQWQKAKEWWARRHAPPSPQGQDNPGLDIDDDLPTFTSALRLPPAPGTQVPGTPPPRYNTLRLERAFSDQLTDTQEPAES
T1 sequence (A0A8I3Q679 1-649): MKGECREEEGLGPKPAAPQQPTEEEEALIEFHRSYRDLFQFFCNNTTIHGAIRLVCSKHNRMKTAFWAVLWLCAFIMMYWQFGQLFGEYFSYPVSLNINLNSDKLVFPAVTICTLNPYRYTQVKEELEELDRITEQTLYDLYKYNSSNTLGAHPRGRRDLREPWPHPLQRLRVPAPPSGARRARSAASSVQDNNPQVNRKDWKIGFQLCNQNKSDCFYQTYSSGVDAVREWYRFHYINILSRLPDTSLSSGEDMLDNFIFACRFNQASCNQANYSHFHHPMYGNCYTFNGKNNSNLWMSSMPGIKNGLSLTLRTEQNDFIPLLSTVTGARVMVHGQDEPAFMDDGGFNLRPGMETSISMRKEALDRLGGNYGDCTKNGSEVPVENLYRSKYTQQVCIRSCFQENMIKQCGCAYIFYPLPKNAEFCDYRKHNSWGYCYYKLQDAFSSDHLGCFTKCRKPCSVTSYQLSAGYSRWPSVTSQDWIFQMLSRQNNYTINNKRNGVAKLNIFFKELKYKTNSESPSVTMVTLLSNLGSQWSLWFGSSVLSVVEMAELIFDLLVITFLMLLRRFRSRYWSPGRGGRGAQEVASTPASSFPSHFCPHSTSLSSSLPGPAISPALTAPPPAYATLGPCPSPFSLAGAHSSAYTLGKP
T1 sequence (Q95165 1-641): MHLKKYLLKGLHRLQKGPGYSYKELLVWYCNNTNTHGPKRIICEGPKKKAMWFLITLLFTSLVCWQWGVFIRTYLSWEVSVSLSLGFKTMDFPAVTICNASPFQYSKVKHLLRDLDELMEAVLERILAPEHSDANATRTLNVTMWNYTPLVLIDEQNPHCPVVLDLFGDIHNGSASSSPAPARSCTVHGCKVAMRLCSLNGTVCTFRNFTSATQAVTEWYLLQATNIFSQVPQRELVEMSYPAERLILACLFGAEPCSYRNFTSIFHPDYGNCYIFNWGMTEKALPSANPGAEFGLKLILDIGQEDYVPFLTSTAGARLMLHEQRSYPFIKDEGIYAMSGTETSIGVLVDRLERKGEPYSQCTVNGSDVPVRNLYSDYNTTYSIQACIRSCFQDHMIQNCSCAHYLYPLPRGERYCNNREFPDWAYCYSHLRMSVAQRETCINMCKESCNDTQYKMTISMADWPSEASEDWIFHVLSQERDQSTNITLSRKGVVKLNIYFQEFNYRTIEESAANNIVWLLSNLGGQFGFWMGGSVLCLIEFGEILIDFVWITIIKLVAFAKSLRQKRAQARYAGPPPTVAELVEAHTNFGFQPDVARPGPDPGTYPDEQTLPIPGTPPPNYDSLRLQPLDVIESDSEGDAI
In words: Sodium channel blocking activity: inhibition of short circuit current (ISC) in airway epithelial monolayers mounted in Ussing chambers. The data set is classed as cell-based, human, dog, sheep or rodent. The settings on record: for Fold Amiloride** (PSA 4022 = 100): Cyclic Pyrazinoylguanidines, relative potency for PSA 4022 = 100 using EC50 from PSA 4022 in same run; for EC50: Selected Cyclic Pyrazinoylguanidines (Formula III), mean ± spread. How it is done:
In Vitro Measure of Sodium Channel Blocking Activity and Reversibility
One assay used to assess mechanism of action and/or potency of the compounds of the present invention involves the determination of lumenal drug inhibition of airway epithelial sodium currents measured under short circuit current (ISC) using airway epithelial monolayers mounted in Ussing chambers. Cells obtained from freshly excised human, dog, sheep or rodent airways are seeded onto porous 0.4 micron Snapwell™ Inserts (CoStar), cultured at air-liquid interface (ALI) conditions in hormonally defined media, and assayed for sodium transport activity (ISC) while bathed in Krebs Bicarbonate Ringer (KBR) in Using chambers. All test drug additions are to the lumenal bath with half-log dose addition protocols (from 1×10^−11 M to 3×10^−5 M), and the cumulative change in ISC (inhibition) recorded. All drugs are prepared in dimethyl sulfoxide as stock solutions at a concentration of 1×10^−2 M and stored at −20° C. Eight preparations are typically run in parallel; two preparations per run incorporate amiloride and/or benzamil as positive controls. After the maximal concentration (5×10^−5 M) is administered, the lumenal bath is exchanged three times with fresh drug-free KBR solution, and the resultant ISC measured after each wash for approximately 5 minutes in duration. Reversibility is defined as the percent return to the baseline value for sodium current after the third wash. All data from the voltage clamps are collected via a computer interface and analyzed off-line.
Dose-effect relationships for all compounds are considered and analyzed by the Prism 3.0 program. IC50 values, maximal effective concentrations, and reversibility are calculated and compared to amiloride and benzamil as positive controls.

SMILES strings stand for the structures. Structures can show the parent of a compound that is named as a salt. Where two headings read alike, the source gives them in different places.

What is called melting point is the temperature, or range, at which the solid turns liquid. `N=C(NCCOCCOCCN)NC(=O)c1nc(Cl)c(N)nc1N` gave a melting point of 87 to 90 °C. The compound `CC(C)(C)OC(=O)NCCCCCCCCCCNC(=N)NC(=O)c1nc(Cl)c(N)nc1N` registered a melting point of 186 to 188 °C. On the same count and under the same terms, next, `CC(C)(C)OC(=O)N=C(NCCCCCCCCNC(=N)NC(=O)c1nc(Cl)c(N)nc1N)NC(=O)OC(C)(C)C`: 208 to 210 °C (dec.); `CC(C)(C)OC(=O)NCCCCCCCCCCCNC(=N)NC(=O)c1nc(Cl)c(N)nc1N`: 82 to 84 °C.

For the compound `N=C(NCCCCc1ccc(OCC(=O)NCC(N)=O)cc1)NC(=O)c1nc(Cl)c(N)nc1N` (as salt: HCl) [compound 16314, N-carbamoylmethyl-2-(4-{4-[N′-(3,5-diamino-6-chloropyrazine-2-carbonyl)guanidino]butyl}phenoxy)acetamide], the melting point is 178 to 180 °C (dec.). Still for that read-out and setting: under `N=C(N)NCCOCCOCCNC(=N)NC(=O)c1nc(Cl)c(N)nc1N` (as salt: hydrochloride) stands 108 to 112 °C (dec.). Same read-out and setting: under `N=C(NCCCOCCCN)NC(=O)c1nc(Cl)c(N)nc1N` (as salt: hydrochloride) stands 164 to 166 °C (dec.); under `N=C(N)NCCCOCCCNC(=N)NC(=O)c1nc(Cl)c(N)nc1N` (as salt: hydrochloride), 72 to 75 °C (dec.).

As for `CN(C)C(=O)COc1ccc(CCCCNC(=N)NC(=O)c2nc(Cl)c(N)nc2N)cc1` (as salt: hydrochloride) [compound 16313, 2-(4-{4-[N-(3,5-diamino-6-chloropyrazine-2-carbonyl)guanidino]-butyl}phenoxy)-N,N-dimethylacetamide hydrochloride], the melting point was 130 to 132 °C (dec.). `N=C(NCCCCc1ccc(OCC(=O)Nc2ncc[nH]2)cc1)NC(=O)c1nc(Cl)c(N)nc1N` (as salt: hydrochloride) [compound 16437, 2-(4-{4-[N′-(3,5-diamino-6-chloropyrazine-2-carbonyl)guanidino]-butyl}phenoxy)-N-(1H-imidazol-2-yl)acetamide dihydrochloride] displayed a melting point of 172 to 174 °C. Consider `N=C(NCCCCCCN)NC(=O)c1nc(Cl)c(N)nc1N` (as salt: hydrochloride) [compound 18706, N-(6-aminohexyl)-N′-(3,5-diamino-6-chloropyrazine-2-carbonyl)guanidine dihydrochloride], for which the melting point was over 240 °C. Same read-out and setting: next, `N=C(N)NCCCCCCCCCNC(=N)NC(=O)c1nc(Cl)c(N)nc1N` (as salt: hydrochloride) [compound 19006, N-{9-[N′-(3,5-diamino-6-chloropyrazine-2-carbonyl)guanidino]nonyl}guanidine dihydrochloride]: 178 to 180 °C; `N=C(N)NCCCCCCCNC(=N)NC(=O)c1nc(Cl)c(N)nc1N` (as salt: hydrochloride) [compound 19155, N-{7-[N′-(3,5-diamino-6-chloropyrazine-2-carbonyl)guanidino]heptyl}guanidine dihydrochloride]: 140 to 142 °C. The same measure, in the same setting: under `N=C(NCCCCCCCCCN)NC(=O)c1nc(Cl)c(N)nc1N` (as salt: hydrochloride) [compound 19335, N-(9-aminononyl)-N′-(3,5-diamino-6-chloropyrazine-2-carbonyl)-guanidine dihydrochloride] stands 155 to 157 °C (dec.); under `N=C(NCCCCCCCCN)NC(=O)c1nc(Cl)c(N)nc1N` (as salt: hydrochloride) [compound 19336, N-(8-aminooctyl)-N′-(3,5-diamino-6-chloropyrazine-2-carbonyl)-guanidine dihydrochloride], 253 to 255 °C.

As a reminder, the EC50 is the concentration giving half of the maximal effect. For `CC(C)(C)OC(=O)NCCCN1CCC(CCCCNC(N)=NC(=O)c2nc(Cl)c(N)nc2N)CC1` [compound 25452, [3-(4-{4-[N′-(3,5-diamino-6-chloropyrazine-2-carbonyl)guanidino]butyl}piperidin-1-yl)propyl]carbamic acid tert-butyl ester], in data set [1], the “Fold Amiloride** (PSA 4022 = 100)” value was determined as 8 ± 1. Also, in data set [1] (read-out: EC50), the concentration for a half-maximal effect (EC50) stood at 60 ± 6 nM. Take `Cl.Cl.Cl.N=C(NCCCCC1CCN(CCN)CC1)NC(=O)c1nc(Cl)c(N)nc1N` [compound 25455, N-{4-[1-(2-Aminoethyl)piperidin-4-yl]butyl}-N′-(3,5-diamino-6-chloropyrazine-2-carbonyl)guanidine trihydrochloride]: the “Fold Amiloride** (PSA 4022 = 100)” value in data set [1] came out at 5 ± 1. Besides, the EC50 in data set [1] (read-out: EC50) worked out at 104 ± 32 nM. As to `N=C(NCCCCC1CCN(CC(O)CO)CC1)NC(=O)c1nc(Cl)c(N)nc1N` (centres unmarked) [compound 25456, N-(3,5-Diamino-6-chloropyrazine-2-carbonyl)-N′-{4-[1-(2,3-dihydroxypropyl)-piperidin-4-yl]butyl}guanidine], the “Fold Amiloride** (PSA 4022 = 100)” value in data set [1] amounted to 6 ± 2. Besides, the EC50 in data set [1] (read-out: EC50) is 106 ± 34 nM. On to `N=C(NCCCCC1CCN(CCCN)CC1)NC(=O)c1nc(Cl)c(N)nc1N` [compound 25510, N-{4-[1-(3-Aminopropyl)piperidin-4-yl]butyl}-N′-(3,5-diamino-6-chloropyrazine-2-carbonyl)guanidine trihydrochloride], for which, in data set [1], the “Fold Amiloride** (PSA 4022 = 100)” value amounted to 3 ± 9 and a half-maximal effect (EC50) was put at 61 ± 23 nM.

Take `CC(C)(C)OC(=O)N=C(NCCCN1CCC(CCCCNC(=N)NC(=O)c2nc(Cl)c(N)nc2N)CC1)NC(=O)OC(C)(C)C` [compound 25569, N-(3,5-Diamino-6-chloropyrazine-2-carbonyl)-N′-{4-[1-(3-[N″,N′″-bis-tert-butoxycarbonyl]guanidinopropyl)piperidin-4-yl]butyl}guanidine]: in data set [1], the “Fold Amiloride** (PSA 4022 = 100)” value is 41 ± 9. In addition, in data set [1] (read-out: EC50), the EC50 stood at 16 ± 3 nM. As to `Cl.Cl.Cl.N=C(N)NCCCN1CCC(CCCCNC(=N)NC(=O)c2nc(Cl)c(N)nc2N)CC1` [compound 25795, N-(3,5-Diamino-6-chloropyrazine-2-carbonyl)-N′-{4-[1-(3-guanidinopropyl)piperidin-4-yl]butyl}guanidine trihydrochloride], in data set [1], the “Fold Amiloride** (PSA 4022 = 100)” value is reported as 18 ± 7.

These data come from patent publication US20050090505A1, “Methods of reducing risk of infection from pathogens” (priority 2003, published 2005).
